In patent US5332733A, “Heterocyclically substituted piperazinoakylbenzoxazine and piperazinoalkylbenzothiazine compounds, processes for preparing them, and medicaments containing them” (Kali-Chemie Pharma GmbH, priority 1990, dated 1994):

Assays:
[1] = system: mice; settings: mouse, in vivo, 1440 min
Experimental: 2. Determination of Minimum Toxic Dose
Maximum doses of 300 mg/kg of the test substance were administered orally to male mice weighing 20-25 g. The animals were observed carefully for 3 hours for toxicity symptoms. In addition, all symptoms and deaths were recorded over a period of 24 hours after administration. Associated symptoms were also observed and recorded. If death or severe toxic symptoms were observed, additional mice were administered increasingly lower doses. The lowest dose which produced death or severe toxic symptoms is given in the following Table B as the minimum toxic dose.

[2] = system: histamine-induced anaphylactoid cutaneous reaction; assay: Inhibition of histamine-induced anaphylactoid cutaneous reaction in rats; type: in vivo, Sprague-Dawley rats; settings: Rattus norvegicus, 1 h, 2 × 10^-5 mole/kg per os, one hour before ovalbumin challenge
Experimental: (§1) 1. Determining Inhibition of Passive Cutaneous Anaphylaxis (PCA) and Histamine-Induced Anaphylactoid Cutaneous Reaction
(§2) The inhibition of the passive cutaneous anaphylaxis and of the anaphylactoid cutaneous reaction induced by histamine was determined as follows:
(§3) Sprague-Dawley rats having a body weight of 150-180 g were injected intradermally in one flank with 50 μl of a 1:75 dilution of the IgE-rich ovalbumin antiserum in physiological saline solution to passively sensitize them to ovalbumin.
(§4) 24 hours after sensitization a solution of 8.25 mg/kg of ovalbumin and 26.4 mg/kg of a blue dye (Evans's Blue) was administered to the rats intravenously according to Martin et al. to trigger passive cutaneous anaphylaxis.
To determine the histamine-induced anaphylactoid skin reaction, the animals are injected intradermally in the flank opposite to the antiserum administration with 50 μl of a physiological saline solution containing 0.8 mg/ml histamine directly before the intravenous injection of the solution containing the ovalbumin and the blue dye.
(§5) On the day of the experiment the test substances were dissolved in distilled water which contained 1 vol. % dimethylformamide and 1 vol. % of Tween™ 20 (=polyoxyethylene (20) sorbitan monolaurate). One hour before administration of the ovalbumin challenge, each animal was orally administered 2×10^-5 mole/kg of test substance in 0.5 ml of solution. For comparison purposes a control group received only the solvent.
(§6) The edematous anaphylactic (PCA) and anaphylactoid (histamine-induced) reactions caused by the stimulation of the intravenous ovalbumin injection, which manifested themselves by edema formation, swelling and exudation of blue dye, were evaluated 30 minutes after their initiation by the intravenous ovalbumin injection. This was done by visually determining the extent to which the blue dye emerged at the sites of edema formation. The percentage inhibition of anaphylactic and anaphylactoid reactions induced by the test substances in comparison with the reactions of the control animals not treated with any test substance was determined using comparison scales.
(§7) The results obtained using compounds of formula I according to the foregoing test methods are shown in the following Table A. The example numbers given for the compounds of formula I relate to the subsequent preparative examples.

[3] = system: passive cutaneous anaphylaxis (PCA); assay: Inhibition of passive cutaneous anaphylaxis (PCA) in rats; type: in vivo, Sprague-Dawley rats; settings: Rattus norvegicus, 1 h, 2 × 10^-5 mole/kg per os, one hour before ovalbumin challenge
Experimental: as §1
The PCA reaction is carried out following the methods described by Goose et al. (J. N. Immunology 16 (1969), 749) and by Martin et al. (Arch. Pharmacol. 316 (1981), 186).
The IgE-rich ovalbumin antiserum used in the test was obtained from immunized Brown-Norway rats. The were immunized with an intraperitoneal injection of a mixture of 100 μg of ovalbumin with a Bordetella pertussis suspension (Vaxicoq™, Manufactured by Institute Merieux, containing 5×10^9 organisms and 1.25 mg Al(OH)3). After 20 days the animals were re-immunized with a further intraperitoneal injection of a solution of 10 μg ovalbumin in 0.5 ml physiological saline solution. After a further four days the blood was removed from the animals and centrifuged. The resulting antiserum was stored at -20° C. until use.
as §2, §3, §4, §5, §6, §7

[4] = system: PAF-induced aggregation of rabbit blood platelets; assay: Anti-PAF activity in vitro, PAF-induced platelet aggregation; type: cell-based, rabbit (New Zealand hybrids); settings: Oryctolagus cuniculus, test substance 10^-5 mole/l, pH 7.4
From the text: 4. Determination of Anti-PAF Activity In Vitro
PAF (=Platelet Activating Factor) is a phospholipid mediator which has many effects. Activation of platelet aggregation induces protracted broncho-contraction and hyper-reactivity of the air paths.
In this test the effect of the test substances on platelet aggregation induced by adding PAF to a suspension of platelets obtained from rabbit blood is investigated using the method described by Mikashima et al. (Jap. J. Pharmacol. 44 (1987) 387-391).
A suspension of platelets obtained from rabbit blood containing 4×10^9 platelets/ml in a modified Tyrode buffer solution (=Tyrode solution with 1.3 mM/l CaCl2 and 2.5 g/l gelatine added) adjusted to pH 7.4 was used. Tyrode solution is an aqueous solution containing 136.9 mmoles NaCl, 2.68 mmoles KCl, 2.31 mmoles CaCl2, 1.0 mmole MgCl2, 11.9 mmoles NaHCO3, 1.45 mmoles NaH2 PO4 and 5.55 mmoles glucose per liter. The platelets were obtained from 10 ml blood samples from each of three rabbits (New Zealand hybrids, body weight 3-4 kg). For this the blood samples were treated with ethylenediamine tetraacetic acid and washed according to the method of Artley et al. (Brit. J. Hematol. 19 (1970), 7-17). A platelet-rich plasma was then initially separated by centrifuging (20 minutes at 400×g). The blood platelets were separated from the plasma by recentrifuging for 15 minutes at 1,400×g. The platelets remaining as sediment after centrifuging were resuspended in a Tyrode buffer solution (but without calcium). 0.4 mmole of lysine acetylsalicylate was then added, and after 15 minutes the platelets were sedimented again. The sediment was resuspended in the aforementioned modified Tyrode buffer solution, and the number of platelets in the resulting suspension was adjusted to the desired content.
A 40×10^-9 molar PAF solution was used as a reagent. This solution was made from a 1.8×10^-3 molar stock solution in chloroform. For this purpose a 10 μl sample of the stock solution was evaporated to dryness and redissolved in 180 μl of the modified Tyrode solution to which 0.25% of lipid-free bovine serum albumin had been added. From this 10^-5 molar working solutions were then prepared and stored frozen. Samples of these solutions were appropriately diluted for the tests.
To carry out the test 50 μl of the platelet suspension and 10 μl of a 40×10^-5 molar solution of the compound being investigated were added with stirring (1,000 rpm) to 330 μl of the modified Tyrode buffer solution in an aggregation tube provided with a small magnetic stirrer. This corresponds to a final test substance concentration of 10^-5 mole/l. After 90 seconds preincubation time, 10 μl of the PAF preparation were added. The aggregation occurring in the aggregation tubes was measured over 4-5 minutes with the aid of a computerized aggregometer.
The aggregation which occurred in test tubes containing only platelet suspension was evaluated as 0%, whereas the aggregation which occurred in test tubes containing platelet suspension and PAF preparation was evaluated as 100%. The aggregation which still occurred during the inhibition of the PAF induced platelet aggregation due to the addition of the test substances was measured, and the resulting aggregation inhibition was calculated therefrom in %.

[5] = molecular target: T1, cyclooxygenase (Mus musculus, UniProt P22437); assay: In vitro cyclooxygenase inhibition, release of 6-keto-PGF1α from zymosan-stimulated peritoneal macrophages; type: cell-based; settings: zymosan-stimulated mouse peritoneal macrophage cells, 10^-5 mole/l
T1 construct: A cell suspension containing peritoneal cells from male mice 8-10 weeks old was obtained in a known manner; endogenous in cells; host or cells: mouse peritoneal macrophages (primary, adherent)
T1 sequence (P22437 27-602): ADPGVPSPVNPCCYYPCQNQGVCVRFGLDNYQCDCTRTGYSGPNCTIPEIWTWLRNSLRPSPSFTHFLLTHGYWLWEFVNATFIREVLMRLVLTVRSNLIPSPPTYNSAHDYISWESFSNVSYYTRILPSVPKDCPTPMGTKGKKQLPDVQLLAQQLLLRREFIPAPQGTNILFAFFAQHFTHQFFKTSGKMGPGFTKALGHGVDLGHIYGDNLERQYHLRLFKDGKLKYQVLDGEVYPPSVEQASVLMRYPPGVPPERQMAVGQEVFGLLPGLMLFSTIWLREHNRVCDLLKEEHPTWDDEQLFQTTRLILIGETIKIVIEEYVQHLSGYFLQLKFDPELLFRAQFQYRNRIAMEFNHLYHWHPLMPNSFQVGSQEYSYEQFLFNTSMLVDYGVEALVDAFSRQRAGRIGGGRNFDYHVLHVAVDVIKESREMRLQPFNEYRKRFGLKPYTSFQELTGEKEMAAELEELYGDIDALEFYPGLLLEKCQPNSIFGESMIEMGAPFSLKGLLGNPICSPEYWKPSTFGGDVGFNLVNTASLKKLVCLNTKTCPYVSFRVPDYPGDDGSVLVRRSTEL
From the text: (§8) 5. In Vitro Determination of Cyclooxygenase Inhibition And 5-lipoxygenase Inhibition.
(§9) After a cell is activated, arachidonic acid contained in cell membranes is metabolized in two ways. Leucotrienes, inter alia leucotriene C4, are formed due to the action of the enzyme 5-lipoxygenase (=5-LO), and prostanoids are formed due to the action of the enzyme cyclooxygenase (=CO). In in vitro systems these metabolites are secreted from the cell.
(§10) To evaluate the cyclooxygenase-inhibiting and 5-lipoxygenase-inhibiting properties of the test substances, their inhibitory activity on the biosynthesis of the arachidonic acid derivatives leucotriene C4 (=LTC4) and 6-keto-prostaglandin F1α (=6-keto-PGF1α) was determined in vitro on mouse peritoneal macrophage cells. For this purpose the LTC4 and 6-keto-PGF1α contents of a mouse peritoneal macrophage cell culture medium were determined by zymosan stimulation as described by Scott et al. (J. Exp. Med. 152 (1980), 324-335) and by Fradin et al., (Prostaglandins, 33 (1987), 579-589).
(§11) A cell suspension containing peritoneal cells from male mice 8-10 weeks old was obtained in a known manner. A solution marketed under the designation RPMI 1640 (Manufactured by Gibco) was used as the cell culture medium, to which heparin (10 international units/ml) and antibiotics were added according to the procedure of Bonney et al. (Biochem. J. 176 (1978) 422-433). The cell suspension was adjusted to a cell concentration of 10^6 cells per ml and distributed uniformly on titer dishes containing 24 1-ml titer cells (wells). These were kept for two hours in a humidified incubator filled with air enriched with 7% CO2. Cells not adhering to the titer well walls were then removed by washing. The remaining macrophage cells adhering to the walls were incubated for about 12 hours in a suspension medium to which 0.1% of bovine serum albumin (BSA=Bovine Serum Albumin) was added. The suspension medium was then replaced by a Hanks salt solution (=Hanks Balanced Salt Solution=HBSS) with 10 mmoles of HEPES (=hydroxyethylpiperazinoethanesulfonic acid) to which a 0.1% strength solution of the test substances in aqueous, 1% strength dimethylformamide or only the solvent had been added. After 15 minutes the arachidonic acid metabolism was stimulated by adding […] of zymosan (=glycoprotein mixture isolated from cell walls of beer yeast, Saccharomyces cerevisiae, Manufactured by Sigma Chemical Co., Munich) per titre cell. After 2 hours samples of the respective supernatant liquid in each cell were examined for their 6-keto-PGF1α and LTC4 contents by an enzyme immunoassay (=EIA). This EIA is carried out following the method of Pradelles et al. (Analytical Chem. 57 (1985), 1170-1173). The determination of LTC4 and the determination of 6-keto-PGF1α were each carried out on suitable dilutions of the samples (1:50 to 1:250 for the LTC4 determination and 1:250 to 1:1,250 for the 6-keto-PGF1α determination) in comparison with a comparative scale. To determine the inhibiting effect of a 10^-5 molar concentration of the compounds, the amounts of reference eicosanoid were determined, and the inhibiting effect was calculated therefrom in % inhibition compared to the measurements of the zymosan controls.

[6] = molecular target: T2, 5-lipoxygenase (Mus musculus, UniProt P48999); assay: In vitro 5-lipoxygenase inhibition, release of LTC4 from zymosan-stimulated peritoneal macrophages; type: cell-based; settings: zymosan-stimulated mouse peritoneal macrophage cells, 10^-5 mole/l
T2 construct: A cell suspension containing peritoneal cells from male mice 8-10 weeks old was obtained in a known manner; endogenous in cells; host or cells: mouse peritoneal macrophages (primary, adherent)
T2 sequence (P48999 1-674): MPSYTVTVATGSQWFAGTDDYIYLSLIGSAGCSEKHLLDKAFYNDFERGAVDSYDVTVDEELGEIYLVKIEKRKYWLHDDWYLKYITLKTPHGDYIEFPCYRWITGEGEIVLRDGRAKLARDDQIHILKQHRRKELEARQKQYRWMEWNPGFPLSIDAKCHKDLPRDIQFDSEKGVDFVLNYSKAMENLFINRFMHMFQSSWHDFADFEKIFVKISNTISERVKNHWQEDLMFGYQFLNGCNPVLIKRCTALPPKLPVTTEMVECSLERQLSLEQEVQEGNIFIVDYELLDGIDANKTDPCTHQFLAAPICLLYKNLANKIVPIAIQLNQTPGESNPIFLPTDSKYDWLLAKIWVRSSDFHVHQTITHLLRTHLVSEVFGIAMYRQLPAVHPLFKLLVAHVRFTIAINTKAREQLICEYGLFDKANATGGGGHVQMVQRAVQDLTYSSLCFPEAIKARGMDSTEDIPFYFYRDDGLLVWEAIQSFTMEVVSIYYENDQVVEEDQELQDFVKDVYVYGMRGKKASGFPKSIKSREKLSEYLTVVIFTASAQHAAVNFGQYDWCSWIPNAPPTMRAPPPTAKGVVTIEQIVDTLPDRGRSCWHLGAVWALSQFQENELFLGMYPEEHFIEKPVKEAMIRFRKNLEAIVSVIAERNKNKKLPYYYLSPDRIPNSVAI
From the text: as §8, §9, §10, §11

| % inhibition upon release of 6-keto-PGF1α [5] [%] | % inhibition upon release of LTC4 [6] [%] | SMILES | Minimum toxic dose [1] [mg/kg] | inhibition in vivo at 20 µmol/kg [2] [%] | inhibition in vivo at 20 µmol/kg [3] [%] | inhibition at 10 µM [4] [%] |
| --- | --- | --- | --- | --- | --- | --- |
| – | – | Cc1ccnc(N2CCN(CCCC3Oc4ccc(C)cc4NC3=O)CC2)c1 (stereo not drawn) [Example 22] | 300 | 45 | 69 | 42 |
| 36 | 72 | Cc1ccnc(N2CCN(C3Sc4ccccc4NC3=O)CC2)c1 (stereo not drawn) [Example 5, 2-[4-(4-methylpyridin-2-yl)-piperazin-1-yl]-2H-1,4-benzothiazine-3(4H)-one] | – | – | – | – |
